Measurements as given in publication PMC9743092, “Membrane-Active Cyclic Amphiphilic Peptides: Broad-Spectrum Antibacterial Activity Alone and in Combination with Antibiotics” (Journal of Medicinal Chemistry, 2022).
Square brackets hold non-standard residues; d marks the D form. Peptide text beside a SMILES is read from it.

Key:
[1] = tested on: human red blood cells (hRBCs); conditions: red cells of human, 2 h
E. coli (ATCC 25922) = tested on: E. coli (ATCC 25922); set-up: MIC E. coli: unit not given beside the values; conditions: supplementary csv, unit not given
MRSA (ATCC BAA-1556) = tested on: MRSA (ATCC BAA-1556); set-up: MIC MRSA: unit not given beside the values; conditions: supplementary csv, unit not given
[2] = tested on: K. pneumoniae (ATCC BAA-1705); conditions: supplementary csv, unit not given
[3] = tested on: P. aeruginosa (ATCC 27883); set-up: MIC P. aeruginosa: unit not given beside the values; conditions: supplementary csv, unit not given

In the case of `N=C(N)NCCC[C@@H]1NC(=O)[C@H](CCCNC(=N)N)NC(=O)[C@H](CCCNC(=N)N)NC(=O)[C@H](CCCNC(=N)N)NC(=O)[C@H](Cc2c[nH]c3ccccc23)NC(=O)[C@H](Cc2c[nH]c3ccccc23)NC(=O)[C@H](Cc2c[nH]c3ccccc23)NC(=O)[C@H](Cc2c[nH]c3ccccc23)NC(=O)[C@H](Cc2c[nH]c3ccccc23)NC(=O)[C@H](Cc2c[nH]c3ccccc23)NC(=O)[C@H](CCCNC(=N)N)NC(=O)[C@H](CCCNC(=N)N)NC(=O)[C@H](CCCNC(=N)N)NC1=O` [7c, [R7W6]] (cyclo(RRRRRRRWWWWWW)), the HC50 [1] is reported as 170 µg/mL, the “MIC E. coli” value (E. coli (ATCC 25922)) is reported as 64 and the “MIC MRSA” value (MRSA (ATCC BAA-1556)) is reported as 32.

With `N=C(N)NCCC[C@@H]1NC(=O)[C@H](CCCNC(=N)N)NC(=O)[C@H](CCCNC(=N)N)NC(=O)[C@H](Cc2c[nH]c3ccccc23)NC(=O)[C@H](Cc2c[nH]c3ccccc23)NC(=O)[C@H](Cc2c[nH]c3ccccc23)NC(=O)[C@H](Cc2c[nH]c3ccccc23)NC(=O)[C@H](Cc2c[nH]c3ccccc23)NC(=O)[C@H](Cc2c[nH]c3ccccc23)NC(=O)[C@H](Cc2c[nH]c3ccccc23)NC(=O)[C@H](CCCNC(=N)N)NC(=O)[C@H](CCCNC(=N)N)NC1=O` [5d, [R5W7]] (cyclo(RRRRRWWWWWWW)) the “MIC K. pneumoniae” value [2] was over 256, the HC50 [1] was 115 µg/mL and the “MIC P. aeruginosa” value [3] was over 256. The “MIC E. coli” value (E. coli (ATCC 25922)) was over 256 and the “MIC MRSA” value (MRSA (ATCC BAA-1556)) was over 256.

With `N=C(N)NCCC[C@@H]1NC(=O)[C@H](CCCNC(=N)N)NC(=O)[C@H](CCCNC(=N)N)NC(=O)[C@H](CCCNC(=N)N)NC(=O)[C@H](Cc2c[nH]c3ccccc23)NC(=O)[C@H](Cc2c[nH]c3ccccc23)NC(=O)[C@H](Cc2c[nH]c3ccccc23)NC(=O)[C@H](Cc2c[nH]c3ccccc23)NC(=O)[C@H](Cc2c[nH]c3ccccc23)NC(=O)[C@H](Cc2c[nH]c3ccccc23)NC(=O)[C@H](Cc2c[nH]c3ccccc23)NC(=O)[C@H](CCCNC(=N)N)NC(=O)[C@H](CCCNC(=N)N)NC(=O)[C@H](CCCNC(=N)N)NC1=O` [7d, [R7W7]] (cyclo(RRRRRRRWWWWWWW)) the HC50 [1] was 140 µg/mL, the “MIC E. coli” value (E. coli (ATCC 25922)) was 32 and the “MIC MRSA” value (MRSA (ATCC BAA-1556)) was 16.

With `N=C(N)NCCC[C@@H]1NC(=O)[C@H](CCCNC(=N)N)NC(=O)[C@H](CCCNC(=N)N)NC(=O)[C@H](Cc2c[nH]c3ccccc23)NC(=O)[C@H](Cc2c[nH]c3ccccc23)NC(=O)[C@H](Cc2c[nH]c3ccccc23)NC(=O)[C@H](Cc2c[nH]c3ccccc23)NC(=O)[C@H](Cc2c[nH]c3ccccc23)NC(=O)[C@H](Cc2c[nH]c3ccccc23)NC(=O)[C@H](CCCNC(=N)N)NC(=O)[C@H](CCCNC(=N)N)NC1=O` [5c, [R5W6]] (cyclo(RRRRRWWWWWW)) the “MIC K. pneumoniae” value [2] was over 256, the HC50 [1] was 140 µg/mL and the “MIC P. aeruginosa” value [3] was over 256. The “MIC E. coli” value (E. coli (ATCC 25922)) was over 256 and the “MIC MRSA” value (MRSA (ATCC BAA-1556)) was over 256.

`N=C(N)NCCC[C@@H]1NC(=O)[C@H](CCCNC(=N)N)NC(=O)[C@H](Cc2c[nH]c3ccccc23)NC(=O)[C@H](Cc2c[nH]c3ccccc23)NC(=O)[C@H](Cc2c[nH]c3ccccc23)NC(=O)[C@H](Cc2c[nH]c3ccccc23)NC1=O` [2b, [R2W4]] (cyclo(RRWWWW); ring closure inferred) was tested, and the “MIC K. pneumoniae” value [2] was 256, the HC50 [1] was 85 µg/mL and the “MIC P. aeruginosa” value [3] was 256. For the same compound, the “MIC E. coli” value (E. coli (ATCC 25922)) was 256 and the “MIC MRSA” value (MRSA (ATCC BAA-1556)) was 64.

In the case of `N=C(N)NCCC[C@@H]1NC(=O)[C@H](CCCNC(=N)N)NC(=O)[C@H](CCCNC(=N)N)NC(=O)[C@H](CCCNC(=N)N)NC(=O)[C@H](Cc2c[nH]c3ccccc23)NC(=O)[C@H](Cc2c[nH]c3ccccc23)NC(=O)[C@H](Cc2c[nH]c3ccccc23)NC(=O)[C@H](Cc2c[nH]c3ccccc23)NC(=O)[C@H](Cc2c[nH]c3ccccc23)NC(=O)[C@H](CCCNC(=N)N)NC(=O)[C@H](CCCNC(=N)N)NC(=O)[C@H](CCCNC(=N)N)NC1=O` [7b, [R7W5]] (cyclo(RRRRRRRWWWWW)), the HC50 [1] is reported as 175 µg/mL, the “MIC E. coli” value (E. coli (ATCC 25922)) is reported as 64 and the “MIC MRSA” value (MRSA (ATCC BAA-1556)) is reported as 8.

For `N=C(N)NCCC[C@H]1NC(=O)[C@H](Cc2c[nH]c3ccccc23)NC(=O)[C@H](Cc2c[nH]c3ccccc23)NC(=O)[C@H](Cc2c[nH]c3ccccc23)NC(=O)[C@H](Cc2c[nH]c3ccccc23)NC(=O)[C@H](Cc2c[nH]c3ccccc23)NC(=O)[C@H](Cc2c[nH]c3ccccc23)NC(=O)[C@H](Cc2c[nH]c3ccccc23)NC(=O)[C@@H](CCCNC(=N)N)NC(=O)[C@@H](CCCNC(=N)N)NC1=O` [3f, [dR3W7]] (cyclo([dR][dR][dR]WWWWWWW)), the “MIC K. pneumoniae” value [2] was 256, the “MIC P. aeruginosa” value [3] was 256 and the “MIC E. coli” value (E. coli (ATCC 25922)) was 256. The “MIC MRSA” value (MRSA (ATCC BAA-1556)) was 64.

`N=C(N)NCCC[C@@H]1NC(=O)[C@H](CCCNC(=N)N)NC(=O)[C@H](Cc2c[nH]c3ccccc23)NC(=O)[C@H](Cc2c[nH]c3ccccc23)NC(=O)[C@H](Cc2c[nH]c3ccccc23)NC1=O` [2a, [R2W3]] (cyclo(RRWWW); ring closure inferred) was tested, and the “MIC K. pneumoniae” value [2] was 256, the HC50 [1] was 120 µg/mL and the “MIC P. aeruginosa” value [3] was 256. For the same compound, the “MIC E. coli” value (E. coli (ATCC 25922)) was 256 and the “MIC MRSA” value (MRSA (ATCC BAA-1556)) was 32.

`N=C(N)NCCC[C@H]1NC(=O)[C@H](Cc2c[nH]c3ccccc23)NC(=O)[C@H](Cc2c[nH]c3ccccc23)NC(=O)[C@H](Cc2c[nH]c3ccccc23)NC(=O)[C@H](Cc2c[nH]c3ccccc23)NC(=O)[C@@H](CCCNC(=N)N)NC(=O)[C@@H](CCCNC(=N)N)NC(=O)[C@@H](CCCNC(=N)N)NC1=O` [4a, [dR4W4]] (cyclo([dR][dR][dR][dR]WWWW)) was tested, and the “MIC K. pneumoniae” value [2] was 64, the HC50 [1] was 110 µg/mL and the “MIC P. aeruginosa” value [3] was 64. For the same compound, the “MIC E. coli” value (E. coli (ATCC 25922)) was 16 and the “MIC MRSA” value (MRSA (ATCC BAA-1556)) was 8.

In the case of `N=C(N)NCCC[C@@H]1NC(=O)[C@H](CCCNC(=N)N)NC(=O)[C@H](CCCNC(=N)N)NC(=O)[C@H](Cc2c[nH]c3ccccc23)NC(=O)[C@H](Cc2c[nH]c3ccccc23)NC(=O)[C@H](Cc2c[nH]c3ccccc23)NC(=O)[C@H](Cc2c[nH]c3ccccc23)NC(=O)[C@H](Cc2c[nH]c3ccccc23)NC(=O)[C@H](CCCNC(=N)N)NC1=O` [4b, [R4W5]], the “MIC K. pneumoniae” value [2] is reported as 128, the HC50 [1] is reported as 100 µg/mL and the “MIC P. aeruginosa” value [3] is reported as 128. For the same compound, the “MIC E. coli” value (E. coli (ATCC 25922)) was 64 and the “MIC MRSA” value (MRSA (ATCC BAA-1556)) was 8.

For `N=C(N)NCCC[C@@H]1NC(=O)[C@H](CCCNC(=N)N)NC(=O)[C@H](Cc2c[nH]c3ccccc23)NC(=O)[C@H](Cc2c[nH]c3ccccc23)NC(=O)[C@H](Cc2c[nH]c3ccccc23)NC(=O)[C@H](Cc2c[nH]c3ccccc23)NC(=O)[C@H](Cc2c[nH]c3ccccc23)NC(=O)[C@H](Cc2c[nH]c3ccccc23)NC(=O)[C@H](CCCNC(=N)N)NC1=O` [3d, [R3W6]], the “MIC K. pneumoniae” value [2] was 128, the HC50 [1] was 65 µg/mL and the “MIC P. aeruginosa” value [3] was 256. The “MIC E. coli” value (E. coli (ATCC 25922)) was 64 and the “MIC MRSA” value (MRSA (ATCC BAA-1556)) was 64.

In the case of `N=C(N)NCCC[C@@H]1NC(=O)[C@H](CCCNC(=N)N)NC(=O)[C@H](CCCNC(=N)N)NC(=O)[C@H](CCCNC(=N)N)NC(=O)[C@H](Cc2c[nH]c3ccccc23)NC(=O)[C@H](Cc2c[nH]c3ccccc23)NC(=O)[C@H](Cc2c[nH]c3ccccc23)NC(=O)[C@H](Cc2c[nH]c3ccccc23)NC(=O)[C@H](Cc2c[nH]c3ccccc23)NC(=O)[C@H](Cc2c[nH]c3ccccc23)NC(=O)[C@H](CCCNC(=N)N)NC(=O)[C@H](CCCNC(=N)N)NC1=O` [6c, [R6W6]] (cyclo(RRRRRRWWWWWW)), the “MIC K. pneumoniae” value [2] is reported as 64, the HC50 [1] is reported as 170 µg/mL and the “MIC P. aeruginosa” value [3] is reported as 128. The “MIC E. coli” value (E. coli (ATCC 25922)) was 64 and the “MIC MRSA” value (MRSA (ATCC BAA-1556)) was 16.

`N=C(N)NCCC[C@@H]1NC(=O)[C@H](CCCNC(=N)N)NC(=O)[C@H](Cc2c[nH]c3ccccc23)NC(=O)[C@H](Cc2c[nH]c3ccccc23)NC(=O)[C@H](Cc2c[nH]c3ccccc23)NC(=O)[C@H](Cc2c[nH]c3ccccc23)NC(=O)[C@H](CCCNC(=N)N)NC1=O` [3b, [R3W4]] (cyclo(RRRWWWW); ring closure inferred) was tested, and the “MIC K. pneumoniae” value [2] was 64, the HC50 [1] was 105 µg/mL and the “MIC P. aeruginosa” value [3] was 256. The “MIC E. coli” value (E. coli (ATCC 25922)) was 32 and the “MIC MRSA” value (MRSA (ATCC BAA-1556)) was 8.

For `N=C(N)NCCC[C@@H]1NC(=O)[C@H](CCCNC(=N)N)NC(=O)[C@H](Cc2c[nH]c3ccccc23)NC(=O)[C@H](Cc2c[nH]c3ccccc23)NC(=O)[C@H](Cc2c[nH]c3ccccc23)NC(=O)[C@H](Cc2c[nH]c3ccccc23)NC(=O)[C@H](Cc2c[nH]c3ccccc23)NC(=O)[C@H](Cc2c[nH]c3ccccc23)NC(=O)[C@H](Cc2c[nH]c3ccccc23)NC(=O)[C@H](CCCNC(=N)N)NC1=O` [3e, [R3W7]] (cyclo(RRRWWWWWWW)), the “MIC K. pneumoniae” value [2] was 64, the HC50 [1] was 60 µg/mL and the “MIC P. aeruginosa” value [3] was 256. The “MIC E. coli” value (E. coli (ATCC 25922)) was 256 and the “MIC MRSA” value (MRSA (ATCC BAA-1556)) was 256.

`N=C(N)NCCC[C@@H]1NC(=O)[C@H](CCCNC(=N)N)NC(=O)[C@H](CCCNC(=N)N)NC(=O)[C@H](CCCNC(=N)N)NC(=O)[C@H](Cc2c[nH]c3ccccc23)NC(=O)[C@H](Cc2c[nH]c3ccccc23)NC(=O)[C@H](Cc2c[nH]c3ccccc23)NC(=O)[C@H](Cc2c[nH]c3ccccc23)NC(=O)[C@H](CCCNC(=N)N)NC(=O)[C@H](CCCNC(=N)N)NC(=O)[C@H](CCCNC(=N)N)NC1=O` [7a, [R7W4]] (cyclo(RRRRRRRWWWW)) was tested, and the “MIC K. pneumoniae” value [2] was 64, the HC50 [1] was 190 µg/mL and the “MIC P. aeruginosa” value [3] was 32. For the same compound, the “MIC E. coli” value (E. coli (ATCC 25922)) was 32 and the “MIC MRSA” value (MRSA (ATCC BAA-1556)) was 16.

`N=C(N)NCCC[C@@H]1NC(=O)[C@H](CCCNC(=N)N)NC(=O)[C@H](Cc2c[nH]c3ccccc23)NC(=O)[C@H](Cc2c[nH]c3ccccc23)NC(=O)[C@H](Cc2c[nH]c3ccccc23)NC(=O)[C@H](Cc2c[nH]c3ccccc23)NC(=O)[C@H](Cc2c[nH]c3ccccc23)NC(=O)[C@H](CCCNC(=N)N)NC1=O` [3c, [R3W5]] (cyclo(RRRWWWWW); ring closure inferred) was tested, and the HC50 [1] was 80 µg/mL.
